The record followed here is patent publication US6977262B2, “Dihydropyrazolopyridine compounds and pharmaceutical use thereof” (Mitsubishi Pharma Corporation, priority 2001, dated 2005).

Take `CCCC1=C(C(=O)OCC)C(c2cc3ccccc3o2)c2c[nH]nc2N1.O=C(O)/C=C\C(=O)O` (stereo not shown) [Example 81, Ethyl 4-(benzo[b]furan-2-yl)-4,7-dihydro-6-propyl-2H-pyrazolo[3,4-b]pyridine-5-carboxylate maleate]: the melting point lay within 123 to 125 °C.
In turn, `CC(C)(C)OC(=O)NCCC1=C(C#N)C(c2cccc3nonc23)c2c[nH]nc2N1` (stereo not shown) [Example 1017, 4-(2,1,3-Benzoxadiazol-4-yl)-6-(2-(N-t-butoxycarbonyl-amino)ethyl)-5-cyano-4,7-dihydro-2H-pyrazolo[3,4-b]pyridine] displayed a melting point of 231 °C.
In the case of `CCCC1=C(C(=O)OCC)C(c2cccc3c2OCCC3)c2c[nH]nc2N1` (single isomer, unassigned; (-)) [Example 188, (−)Ethyl 4-(3,4-dihydro-2H-benzopyran-8-yl)-4,7-dihydro-6-propyl-2H-pyrazolo[3,4-b]pyridine-5-carboxylate], the melting point was in the range of 160 to 161 °C.
Compound `CC(C)C1=C(C#N)C(c2cccc3nocc23)c2c[nH]nc2N1` (stereo not shown) [Example 332, 4-(2,1-Benzoisoxazol-4-yl)-5-cyano-4,7-dihydro-6-isopropyl-2H-pyrazolo[3,4-b]pyridine] showed a melting point of 245 °C.
Regarding `CCCC1=C(C(=O)OCC)C(c2cnc[nH]2)c2c[nH]nc2N1` (stereo not shown) [Example 238, Ethyl 4,7-dihydro-4-(1H-imidazol-5-yl)-6-propyl-2H-pyrazolo[3,4-b]pyridine-5-carboxylate], the melting point was 200 °C.
For the compound `CCCC1=C(C(=O)OCC)C(c2ccc(Cl)s2)c2c[nH]nc2N1.O=C(O)/C=C\C(=O)O` (stereo not shown) [Example 64, Ethyl 4-(5-chlorothiophen-2-yl)-4,7-dihydro-6-propyl-2H-pyrazolo[3,4-b]pyridine-5-carboxylate maleate], the melting point lay within 129 to 131 °C.
In the case of `CCCC1=C(C(=O)OCC)C(c2c(F)cccc2Cl)c2c[nH]nc2N1` (stereo not shown) [Example 56, Ethyl 4-(2-chloro-6-fluorophenyl)-4,7-dihydro-6-propyl-2H-pyrazolo[3,4-b]pyridine-5-carboxylate], the melting point fell in the range of 180 to 183 °C.
Compound `CC(C)C1=C(C#N)C(c2ccccc2[N+](=O)[O-])c2c[nH]nc2N1` (stereo not shown) [Example 262, 5-Cyano-4,7-dihydro-6-isopropyl-4-(2-nitrophenyl)-2H-pyrazolo[3,4-b]pyridine] returned a melting point of 224 °C.
`CN1CCCC(C2=C(C#N)C(c3cccc4nonc34)c3c[nH]nc3N2)C1` (stereo not shown) [Example 1006, 4-(2,1,3-Benzoxadiazol-4-yl)-5-cyano-4,7-dihydro-6-(1-methylpiperidin-3-yl)-2H-pyrazolo[3,4-b]pyridine] yielded a melting point of 228 °C.
Take `CCCC1=C(C#N)C(c2ccc(F)cc2Cl)c2c[nH]nc2N1` (stereo not shown) [Example 363, 5-Cyano-4,7-dihydro-4-(4-fluoro-2-chlorophenyl)-6-propyl-2H-pyrazolo[3,4-b]pyridine]: the melting point fell in the range of 209 to 212 °C.
`CCCC1=C(C(=O)OCC)C(c2cccc3c2OCCC3)c2c[nH]nc2N1` (stereo not shown) [Example 73, Ethyl 4-(3,4-dihydro-2H-benzopyran-8-yl)-4,7-dihydro-6-propyl-2H-pyrazolo[3,4-b]pyridine-5-carboxylate] returned a melting point of 208 °C.
`COc1ccccc1C1C(C#N)=C(C(C)C)Nc2n[nH]cc21` (stereo not shown) [Example 265, 5-Cyano-4,7-dihydro-6-isopropyl-4-(2-methoxyphenyl)-2H-pyrazolo[3,4-b]pyridine]: the melting point is more than 250 °C.
In turn, `CCC1=C([N+](=O)[O-])C(c2cccc(Cl)c2Cl)c2c[nH]nc2N1` (stereo not shown) [Example 126, 4-(2,3-Dichlorophenyl)-6-ethyl-4,7-dihydro-5-nitro-2H-pyrazolo[3,4-b]pyridine] registered a melting point of 250 °C.
With `CC(=O)N1CCCC(C2=C(C#N)C(c3cccc4nonc34)c3c[nH]nc3N2)C1` (stereo not shown) [Example 1032, 6-(1-Acetylpiperidin-3-yl)-4-(2,1,3-benzoxadiazol-4-yl)-5-cyano-4,7-dihydro-2H-pyrazolo[3,4-b]pyridine], the melting point was 219 °C.
Under `CCOC(=O)C1=C(C(F)(F)F)Nc2n[nH]cc2C1c1ccc(OC)cc1` (stereo not shown) [Example 19, Ethyl 4,7-dihydro-4-(4-methoxyphenyl)-6-trifluoromethyl-2H-pyrazolo[3,4-b]pyridine-5-carboxylate] stands 159 to 161 °C.
`CC(C)(C)C1=C(C#N)C(c2cccc3nonc23)c2c[nH]nc2N1` (stereo not shown) [Example 320, 4-(2,1,3-Benzoxadiazol-4-yl)-6-t-butyl-5-cyano-4,7-dihydro-2H-pyrazolo[3,4-b]pyridine] returned a melting point of 204 °C.
`CN1CCC(C2=C(C#N)C(c3cccc(C#N)c3Br)c3c[nH]nc3N2)CC1` (stereo not shown) [Example 1038, 4-(2-Bromo-3-cyanophenyl)-5-cyano-4,7-dihydro-6-(1-methylpiperidin-4-yl)-2H-pyrazolo[3,4-b]pyridine] had a melting point of more than 270 °C.
In the case of `N#CC1=C(c2cccs2)Nc2n[nH]cc2C1c1ccccc1Cl` (stereo not shown) [Example 241, 4-(2-Chlorophenyl)-5-cyano-4,7-dihydro-6-(thiophen-2-yl)-2H-pyrazolo[3,4-b]pyridine], the melting point was 174 °C.
In turn, `CCCC1=C(C#N)C(c2ccncc2)c2c[nH]nc2N1` (stereo not shown) [Example 337, 5-Cyano-4,7-dihydro-6-propyl-4-(pyridin-4-yl)-2H-pyrazolo[3,4-b]pyridine] displayed a melting point of 224 °C.
Under `CNCC1=C(C#N)C(c2cccc3nonc23)c2c[nH]nc2N1.O=C(O)C(F)(F)F` (stereo not shown) stands 174 °C; under `CCCC1=C(C#N)C(c2ccccc2Cl)c2c(n[nH]c2-c2ccccc2OC)N1` (stereo not shown) [Example 296, 4-(2-Chlorophenyl)-5-cyano-4,7-dihydro-3-(2-methoxyphenyl)-6-propyl-2H-pyrazolo[3,4-b]pyridine], more than 270 °C.
`CSc1ccccc1C1C(C#N)=C(c2ccccc2)Nc2n[nH]cc21` (stereo not shown) [Example 143, 5-Cyano-4,7-dihydro-4-(2-methylthiophenyl)-6-phenyl-2H-pyrazolo[3,4-b]pyridine] came in with a melting point of 146 °C.
In the case of `CCCC1=C(C#N)C(c2cccc([N+](=O)[O-])c2Br)c2c[nH]nc2N1` (stereo not shown) [Example 189, 4-(2-Bromo-3-nitrophenyl)-5-cyano-4,7-dihydro-6-propyl-2H-pyrazolo[3,4-b]pyridine] it was 250 to 255 °C (dec.).
With `Cl.Cl.Cl.N#CC1=C(CN2CCN(c3cccc4ccccc34)CC2)Nc2n[nH]cc2C1c1ccccc1Cl` (stereo not shown), the melting point was 203 to 205 °C (dec.).
`CCCC1=C(C#N)C(c2ccccc2Cl)c2c(n[nH]c2-c2cccc3ccccc23)N1` (stereo not shown) [Example 300, 4-(2-Chlorophenyl)-5-cyano-4,7-dihydro-3-(naphthalen-1-yl)-6-propyl-2H-pyrazolo[3,4-b]pyridine]: the melting point stood at 254 °C.
`N#CC1=C(C2CC(=O)N(Cc3ccccc3)C2)Nc2n[nH]cc2C1c1ccccc1Cl` (stereo not shown) [Example 1083, 6-(1-Benzyl-2-oxopyrrolidin-4-yl)-4-(2-chlorophenyl)-5-cyano-4,7-dihydro-2H-pyrazolo[3,4-b]pyridine] gave a melting point of more than 230 °C.
In the case of `N#CC1=C(c2ccco2)Nc2n[nH]cc2C1c1cccc2nonc12` (stereo not shown) [Example 173, 4-(2,1,3-Benzoxadiazol-4-yl)-5-cyano-6-(furan-2-yl)-4,7-dihydro-2H-pyrazolo[3,4-b]pyridine] it was 237 °C; in that of `N#CC1=C(c2ccccc2)Nc2n[nH]cc2C1c1cccc(F)c1F` (stereo not shown) [Example 149, 5-Cyano-4-(2,3-difluorophenyl)-4,7-dihydro-6-phenyl-2H-pyrazolo[3,4-b]pyridine], 165 °C.
As for `CCCC1=C(C(=O)OCC)C(c2ccccc2Cl)c2cn(C(=O)c3ccccc3)nc2N1` (stereo not shown) [Example 211, Ethyl 2-benzoyl-4-(2-chlorophenyl)-4,7-dihydro-6-propyl-2H-pyrazolo[3,4-b]pyridine-5-carboxylate], the melting point fell in the range of 119 to 121 °C.
As for `CCCC1=C(C(=O)OCC)C(c2cccc3nonc23)c2c[nH]nc2N1` (single isomer, unassigned; (-)) [Example 117, (−)Ethyl 4-(2,1,3-benzoxadiazol-4-yl)-4,7-dihydro-6-propyl-2H-pyrazolo[3,4-b]pyridine-5-carboxylate], the melting point worked out at 160 °C.
Under `CCC1=C(C#N)C(c2ccccc2[N+](=O)[O-])c2c[nH]nc2N1` (stereo not shown) [Example 192, 5-Cyano-6-ethyl-4,7-dihydro-4-(2-nitrophenyl)-2H-pyrazolo[3,4-b]pyridine] stands 228 to 230 °C (dec.); under `COc1ccc(C2=C(C#N)C(c3ccccc3Cl)c3c[nH]nc3N2)cc1` (stereo not shown) [Example 95, 4-(2-Chlorophenyl)-5-cyano-4,7-dihydro-6-(4-methoxyphenyl)-2H-pyrazolo[3,4-b]pyridine], 124 °C; under `Cc1ccc(C2=C(C#N)C(c3cccc4nonc34)c3c[nH]nc3N2)s1` (stereo not shown) [Example 299, 4-(2,1,3-Benzoxadiazol-4-yl)-5-cyano-4,7-dihydro-6-(2-methylthiophen-5-yl)-2H-pyrazolo[3,4-b]pyridine], 192 °C.
In the case of `CCCC1=C(C(=O)OCC)C(c2ccccc2Cl)c2cnn(C(=O)OCc3ccccc3)c2N1` (stereo not shown) [Example 208, Ethyl 1-benzyloxycarbonyl-4-(2-chlorophenyl)-4,7-dihydro-6-propyl-1H-pyrazolo[3,4-b]pyridine-5-carboxylate] it was 80 °C.
Compound `CCCC1=C([N+](=O)[O-])C(c2cccc3c2OCCC3)c2c[nH]nc2N1` (stereo not shown) [Example 124, 4,7-Dihydro-4-(3,4-dihydro-2H-benzopyran-8-yl)-5-nitro-6-propyl-2H-pyrazolo[3,4-b]pyridine] registered a melting point of 234 °C.
In the case of `COCC1=C(C(=O)OC)C(c2ccccc2OC)c2c[nH]nc2N1` (stereo not shown) [Example 91, Methyl 4,7-dihydro-6-methoxymethyl-4-(2-methoxyphenyl)-2H-pyrazolo[3,4-b]pyridine-5-carboxylate] it was 186 °C.
Turning to `CC(C)(C)OC(=O)N1CCC(C2=C(C#N)C(c3cccc4nonc34)c3c[nH]nc3N2)CC1` (stereo not shown) [Example 1001, 4-(2,1,3-Benzoxadiazol-4-yl)-6-(1-t-butoxycarbonylpiperidin-4-yl)-5-cyano-4,7-dihydro-2H-pyrazolo[3,4-b]pyridine], the melting point is 226 °C.

By melting point is commonly meant the temperature, or range, at which the solid turns liquid.
